From patent publication US8912315B2, “Purkinje cell-tropic viral vector” (Japan Science and Technology Agency, priority 2006, dated 2014)

System: HeLa cells
Type: cell-based
Conditions: viruses generated in HEK293T cells with the named serum or protease inhibitor, Table 3; TU/ml

Compound	Titer × 10^9
COc1ccc(S(=O)(=O)N(Cc2cccnc2)[C@@H](C(=O)NO)C(C)C)cc1 [CGS 27023A]	3.4 ± 1.4 × 10^9
TIMP-1: metallo proteinase inhibitor added to medium during virus generation	6.3 × 10^9
